# Assay results taken from patent publication US20070149580A1, “USE OF PEROXISOME PROLIFERATOR ACTIVATED RECEPTOR DELTA AGONISTS FOR THE TREATMENT OF MS AND OTHER DEMYELINATING DISEASES” (AVENTIS PHARMACEUTICALS INC., priority 2004, published 2007).
# Test system: cultured rat oligodendrocytes
# Test: Quantitative PCR of MBP mRNA in cultured rat oligodendrocytes
# Format: cell-based
# Details: FIGS. 2 and 3
# Text: • 1. Primary rat oligodendrocyte progenitor cells are obtained from the neocortex of newborn (postnatal days 2-3) rats or mice and are enriched, after removal of microglia, by mechanical separation from the astrocytic monolayer using a modification of the technique originally described by McCarthy and de Vellis (1980). • 2. Remove the meninges from neonatal rat brain and mechanically dissociate tissue. Plate cells on T75 flasks and feed cells with DMEM/F12+10% FBS. • 3. Collect oligodendrocytes growing on the astrocyte bed layer by shaking-off method fourteen days after the original prep date. Centrifuge the suspension and resuspend the cell pellet in serum free media (SFM; DMEM combined with 25 μg/ml transferring, 30 nM triiodothyronine, 20 nM hydrocortisone, 20 nM progesterone, 10 nM biotin, 1× trace elements, 30 nM selenium, 1 μg/ml putrescine, 0.1% BSA, 5 U/ml PenStrep, 10 μg/ml insulin) supplemented with the following growth factors: Platelet derived growth factor-AA (PDGF) and fibroblast growth factor-2 (FGF). • 4. Plate the cells on PDL-coated dishes and incubate at 37° C. with 6-7% CO2. • 5. Media components are replaced every 48 hr to keep the cells in a progenitor state. Progenitor Cell Passaging to Increase Cell Numbers for Screening Assays: • 1. […]
# • 1. […] PPAR delta pathway member transcript expression is quantitated using Sybr Green PCR Master Mix. • 4. […]
row,Compound,MBP mRNA
1,Cc1cc(SCc2sc(-c3ccc(C(F)(F)F)cc3)nc2C)ccc1OCC(=O)O [Compound 1],enhancement
2,CCCc1c(OCCCOc2ccc(OCC(=O)O)cc2)ccc(C(C)=O)c1O [Compound 2],enhancement
